A short description of data set [1]: Metabolic stability in human liver microsomes assessed as compound remaining by LC-MS/MS analysis. It counts as ADME, microsome. For orientation: Liver microsomes are vesicles of endoplasmic reticulum, rich in cytochrome P450 enzymes.
Data set [2] can be described thus: Metabolic stability in rat liver microsomes assessed as compound remaining by LC-MS/MS analysis. The format is ADME, microsome.
A short description of data set [3]: Metabolic stability in mouse liver microsomes assessed as compound remaining by LC-MS/MS analysis. It counts as ADME, microsome.
Data set [4] in a line: Inhibition of TGFbetaR1 in mink Mv1Lu cells assessed as TGFbeta-stimulated PSMAD2 phosphorylation preincubated for 1 hr followed by TGFbeta addition measured after 15 mins. The format is cell-based, Neovison vison. The conditions noted are these: Neogale vison.
The target of data set [5] is TGF-beta receptor type-2 (Homo sapiens, UniProt P37173). Description: Inhibition of wild type His-tagged TGFbetaR2 (unknown origin) after 1 hr by HTRF assay.
Sequence of TGF-beta receptor type-2 (P37173 whole entry): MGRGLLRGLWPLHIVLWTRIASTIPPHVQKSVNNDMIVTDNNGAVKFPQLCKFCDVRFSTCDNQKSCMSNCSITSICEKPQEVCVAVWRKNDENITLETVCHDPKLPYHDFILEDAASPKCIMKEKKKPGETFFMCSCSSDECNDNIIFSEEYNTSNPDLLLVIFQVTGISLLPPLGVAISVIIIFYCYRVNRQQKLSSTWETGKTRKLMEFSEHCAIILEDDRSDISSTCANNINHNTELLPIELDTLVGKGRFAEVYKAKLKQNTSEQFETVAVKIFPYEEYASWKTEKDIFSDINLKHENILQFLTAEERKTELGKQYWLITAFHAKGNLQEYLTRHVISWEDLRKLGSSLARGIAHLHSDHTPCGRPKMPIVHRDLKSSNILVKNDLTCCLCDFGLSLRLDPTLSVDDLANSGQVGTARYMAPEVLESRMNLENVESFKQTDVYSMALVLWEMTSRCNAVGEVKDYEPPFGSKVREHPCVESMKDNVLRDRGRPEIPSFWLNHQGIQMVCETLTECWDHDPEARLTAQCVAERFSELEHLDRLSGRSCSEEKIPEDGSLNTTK
Data set [6] in a line: Solubility of the compound in DMSO. The format is physicochemical.
Data set [7] has as its system Mus musculus. Description: In vivo inhibition of TGFbetaR1 in po dosed BALB/c mouse implanted with mouse 4T1 cells assessed as reduction in phosphorylated PSMAD levels after 7 hrs. It counts as functional, organism-based.

`c1ccc(-c2nc(Nc3ccncc3)c3cccn3n2)nc1`: the Stability in data set [1] is on record as 33%; in data set [2], 33%; in data set [3] it was 1%. Also, the IC50 (as a rule, the concentration that inhibits the measured activity by half) in data set [4] was 350 nM.

For the molecule `Cc1cccc(-c2nc(Nc3ccncc3F)c3cc[nH]c3n2)n1`, the values for the Stability in data set [1], in data set [2] and in data set [3] were 25%, 38% and 2%, respectively. The IC50 in data set [4] worked out at 24 nM.

With `N[C@H]1CCN(Cc2ccn3nc(-c4ccccn4)nc(Nc4ccncc4F)c23)C[C@@H]1O`, the Stability in data set [1] came to 85%; in data set [2], 90%; in data set [3] it was 82%. Besides, the IC50 in data set [4] stood at 390 nM.

Regarding `O=C(CN1CCN(CCO)CC1)Nc1cc(Nc2nc(-c3cccc(C(F)(F)F)n3)nn3cccc23)ccn1`, the results for the Stability in data set [1] and in data set [3] were 70% and 77%, respectively. In addition, in data set [4], the IC50 is 220 nM.

With `Cc1cccc(-c2nc(Nc3ccncc3F)c3cccn3n2)n1`, the Stability is reported as 11% in data set [1], 35% in data set [2] and 6% in data set [3]. The IC50 in data set [4] worked out at 180 nM.

For `N[C@@H]1CCN(Cc2ccn3nc(-c4ccccn4)nc(Nc4ccncc4F)c23)C[C@H]1O`, the Stability in data set [1] was determined as 93%; in data set [2] it was 92%; in data set [3] it was 100%. In addition, the IC50 in data set [4] was determined as 310 nM.

Take `Cc1cccc(-c2nc(Nc3ccncc3F)c3nc[nH]c3n2)n1`: the Stability was 38% in data set [1], 47% in data set [2] and 4% in data set [3]. For the same molecule, the IC50 in data set [4] was 150 nM.

Regarding `Cc1cccc(-c2nc(Nc3ccncc3C(=O)NC(C)C)c3cccn3n2)n1`, the Stability in data set [1] is 65%; in data set [2], 67%; in data set [3], 26%. Also, in data set [4], the IC50 was above 10000 nM.

In the case of `Fc1cnccc1Nc1nc(-c2cccc(C(F)(F)F)n2)nc2[nH]ccc12`, the Stability in data set [1] stood at 36%; in data set [3], 28%. The IC50 in data set [4] turned out to be 47 nM.

For the molecule `c1ccc(-c2nn3c(c2-c2ccnc4cc(OCCN5CCOCC5)ccc24)CCC3)nc1`, the IC50 in data set [5] came to 190 nM; in data set [4], 750 nM. The Stability in data set [1] was found to be 58%; in data set [2] it was 46%; in data set [3], 36%.

For `Cc1cccc(-c2nc(Nc3c(F)cncc3F)c3cccn3n2)n1`, the values for the Stability in data set [1], in data set [2] and in data set [3] were 15%, 39% and 7%, respectively. Also, the IC50 in data set [4] was 1200 nM.

`Cc1cccc(-c2nc(Nc3ccnc4ccccc34)c3cccn3n2)n1`: the solubility result in data set [6] was “Insoluble”.

`Cc1cccc(-c2nn3c(c2-c2ccnc4ccc(C(N)=O)cc24)CCC3)n1` [GALUNISERTIB]: the midpoint of inhibition in data set [5], the IC50, lay at 1300 nM.

As to `COc1cccc(-c2nc(Nc3ccncc3)c3cccn3n2)n1`, the results for the Stability in data set [1], in data set [2] and in data set [3] were 12%, 36% and 2%, respectively. Also, the IC50 in data set [4] amounted to 3900 nM.

`Cc1cccc(-c2nc(Nc3ccncc3)c3cccn3n2)n1`: the Stability in data set [1] was determined as 11%; in data set [2], 28%; in data set [3] it was 1%. The IC50 in data set [4] was 99 nM. The solubility result in data set [6] is “Soluble”.

As for `CC(=O)Nc1cc(Nc2nc(-c3cccc(C(F)(F)F)n3)nc3[nH]ccc23)ccn1`, the Stability is recorded as 81% in data set [1], 80% in data set [2] and 27% in data set [3]. Also, the IC50 in data set [4] worked out at 43 nM.

Take `N[C@H]1CC[C@@H](NCc2ccn3nc(-c4ccccn4)nc(Nc4ccncc4F)c23)CC1`: the Stability in data set [1] is recorded as 86%; in data set [2] it was 72%; in data set [3] it was 48%. For the same molecule, the IC50 in data set [4] worked out at 76 nM.

Consider `CC(=O)Nc1cc(Nc2nc(-c3cccc(C(F)(F)F)n3)nn3cccc23)ccn1`, for which the figures for the Stability in data set [1], in data set [2] and in data set [3] were 75%, 35% and 49%, respectively. Besides, the IC50 in data set [4] came out at 180 nM. Besides, the Activity entry in data set [7] was “Dose-dependent effect”.

As to `FC(F)(F)c1cccc(-c2nc(Nc3ccncc3)c3cccn3n2)n1`, the Stability came out at 24% in data set [1], 48% in data set [2] and 13% in data set [3]. In addition, the IC50 in data set [4] came out at 710 nM.

On to `CC(=O)Nc1cc(Nc2nc(-c3cccc(C(F)(F)F)n3)nc3[nH]cnc23)ccn1`, for which the Stability in data set [1] was 85%; in data set [2], 77%; in data set [3], 59%. Also, the IC50 in data set [4] turned out to be 130 nM.

Regarding `Fc1cnccc1Nc1nc(-c2ccccn2)nn2cccc12`, the Stability in data set [1] amounted to 54%; in data set [2], 54%; in data set [3], 19%. Moreover, the half-inhibitory concentration (IC50) in data set [4] was determined as 500 nM.

As to `CC(=O)Nc1cc(Nc2nc(-c3cccc(C(F)(F)F)n3)nn3cccc23)c(F)cn1`, the values for the Stability in data set [1], in data set [2] and in data set [3] were 78%, 68% and 66%, respectively.
